Like-named read-outs stand apart in the source and are kept apart here.
Tests used:
S. aureus TrmD = biological target: T1, S. aureus TrmD (Staphylococcus aureus, UniProt Q2FZ43); assay: nanoSAR direct-to-biology FP displacement screening of crude triazoles; assay type: binding; details: read-out: % displaced tracer
T1 construct: made in house; host or cells: E. coli BL21
T1 sequence (Q2FZ43 1-245): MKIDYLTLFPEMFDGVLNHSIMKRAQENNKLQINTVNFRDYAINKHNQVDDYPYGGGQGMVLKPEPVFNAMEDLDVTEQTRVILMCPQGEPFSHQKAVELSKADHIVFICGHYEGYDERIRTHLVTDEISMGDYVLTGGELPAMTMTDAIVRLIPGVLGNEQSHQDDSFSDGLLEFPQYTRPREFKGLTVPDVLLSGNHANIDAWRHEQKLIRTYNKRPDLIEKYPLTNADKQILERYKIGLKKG
In short: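 S. aureus TrmD (500 nM) with tracer 4 (10 nM) in Tris/NaCl/MgCl2/glycerol buffer, pH 7.5, was challenged with unpurified triazoles from in situ CuAAC of alkyne 7 with a 320-member azide library.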

S. aureus RN4220 lysate = assay: Bacterial lysate carbamate cleavage assay (LC/MS); assay type: in vitro ADME, Staphylococcus aureus; details: 400 μM, 16 h; for cleavage in S. aureus lysate: LC/MS; for degree of carbamate cleavage to 8h: S. aureus lysate
Method: An overnight culture of S. aureus RN4220 was set up in TSB medium (BD Bacto Tryptic Soy Broth). The next day, a 150 mL day culture was started at an initial OD600 of 0.1. The culture was incubated at 200 rpm shaking at 37 °C. The bacteria were harvested after 3 h and 40 min (OD600 = 3.30). A 1 mL aliquot was retained to determine cell number. 150 mL of the culture was centrifuged at 4000 rpm for 10 min at 4 °C. The resulting pellet was resuspended in 10 mL of JB Lysis Buffer (0.1% Triton X-100, 20 mM Tris-HCl, 150 mM KCl, 1 mM MgCl2, 1 mM DTT, and protease inhibitors) and transferred to FastPrep tubes. Cells were mechanically lysed (2 × 30 s, 6.5 m/s) and cooled for 5 min on ice. The samples were centrifuged, and the supernatant was transferred to a new tube. Subsequently, it was centrifuged again at 5000 rpm for 30 min at 4 °C. The pellet was washed three times with 1× PBS, reducing the volume to 1 mL. Protein concentration was determined using the Pierce BCA Protein Assay Kit (Thermo Scientific). The final sample was frozen in liquid nitrogen and stored at −80 °C. 100 μL of this lysate was incubated with 8f–h (final concentration 400 μM, 2% DMSO) for 16 h at 30 °C. Afterward, 100 μL acetonitrile was added, and the samples were passed through a syringe filter. Ten μL of the samples were injected during LC/MS (Agilent 1100 system, LC/MSD trap) using an Agilent Poroshell 120 EC-C18 150 × 2.10 mm 4 μm column; mobile phase (gradient: acetonitrile/H2O, 0.1% formic acid). The LC/MS chromatograms and their corresponding mass spectra (base-peak) were analyzed using MestReNova (12.0.4) for prodrug deprotection products.

[1] = crude triazole at 1 μM, assuming full conversion, 500 nM TrmD, 10 nM tracer 4

N#Cc1cccc(Cn2cc(-c3c[nH]c4nc[nH]c(=O)c34)nn2)c1 [Compound 8b, 3-((4-(4-Oxo-4,7-dihydro-3H-pyrrolo[2,3-d]pyrimidin-5-yl)-1H-1,2,3-triazol-1-yl)methyl)benzonitrile]
inhibition at 1 µM (S. aureus TrmD; [1]): 100%

O=c1[nH]cnc2[nH]cc(-c3cn(CC4CCC5C(CC4)C5(F)F)nn3)c12 (stereo not drawn) [Compound 8c, 5-(1-((8,8-Difluorobicyclo[5.1.0]octan-4-yl)methyl)-1H-1,2,3-triazol-4-yl)-3,7-dihydro-4H-pyrrolo[2,3-d]pyrimidin-4-one]
inhibition at 1 µM (S. aureus TrmD; [1]): 98%

O=c1[nH]cnc2[nH]cc(-c3cn(Cc4ccc5ncccc5c4)nn3)c12 [Compound 8d, 5-(1-(Quinolin-6-ylmethyl)-1H-1,2,3-triazol-4-yl)-3,7-dihydro-4H-pyrrolo[2,3-d]pyrimidin-4-one]
inhibition at 1 µM (S. aureus TrmD; [1]): 98%

N[C@@H]1CCC[C@@H]1Cn1cc(-c2c[nH]c3nc[nH]c(=O)c23)nn1 [Compound 8e, 5-(1-(((1R,2R)-2-Aminocyclopentyl)methyl)-1H-1,2,3-triazol-4-yl)-3,7-dihydro-4H-pyrrolo[2,3-d]pyrimidin-4-one]
inhibition at 1 µM (S. aureus TrmD; [1]): 93%

O=C(/N=C(\NCCn1cc(-c2c[nH]c3nc[nH]c(=O)c23)nn1)NC(=O)OCc1ccccc1)OCc1ccccc1 [Compound 8f]
cleavage in S. aureus lysate (S. aureus RN4220 lysate): readily cleaved | degree of carbamate cleavage to 8h (S. aureus RN4220 lysate): ~30%

CC(C)(C)OC(=O)/N=C(\NCCn1cc(-c2c[nH]c3nc[nH]c(=O)c23)nn1)NC(=O)OC(C)(C)C [Compound 8g]
cleavage in S. aureus lysate (S. aureus RN4220 lysate): readily cleaved | degree of carbamate cleavage to 8h (S. aureus RN4220 lysate): ~30%

NC(N)=NCCn1cc(-c2c[nH]c3nc[nH]c(=O)c23)nn1 [Compound 8h]
inhibition at 1 µM (S. aureus TrmD): 97%

Reference: paper PMC12751012, “Nanoscale Direct-to-Biology Optimization and Structural Insights into Selective S. aureus TrmD Inhibitors” (Journal of Medicinal Chemistry, 2025)
